Data on 1 compound can be found in paper PMC4013371 (The Journal of Veterinary Medical Science, 2013).

The structures appear in SMILES notation.

The nature of data set [1]: Adverse effects during multiple CLM treatment. Type of data set: in vivo, healthy beagles (dogs). Particulars: CLM about 10 mg/kg PO twice daily for ten days; three healthy beagles.
The conditions of data set [2]: CLM 10 mg/kg PO, healthy beagles, not steady state; cited from earlier work.

For the compound `CC[C@H]1OC(=O)[C@H](C)[C@@H](O[C@H]2C[C@@](C)(OC)[C@@H](O)[C@H](C)O2)[C@H](C)[C@@H](O[C@@H]2O[C@H](C)C[C@H](N(C)C)[C@H]2O)[C@](C)(OC)C[C@@H](C)C(=O)[C@H](C)[C@@H](O)[C@]1(C)O` [CLM, Clarithromycin], in data set [1], the “adverse effects associated with CLM, such as gastrointestinal irritation” value was “no adverse effects”. Also, the serum concentrations entry in data set [2] is given as “approximately 3 µg/ml”.
